Publication PMC6350621, “Small-molecules that covalently react with a human prolyl hydroxylase – towards activity modulation and substrate capture” (Chemical Communications (Cambridge, England), 2018)
pIC50: −log10 of the molar value.

Tests used:
[1] = biological target: T1, PHD2 truncated at residue 410 (Homo sapiens, UniProt Q9GZT9); assay: Non-denaturing ESI-MS crosslinking, 410 truncate; format: binding; details: equimolar FeSO4 and compound, 3 h, 37 °C, 200 V
T1 construct: PHD2 constructs truncated at residues 402, 410, 414 and 418; Both the 418 (PHD2_181–418); His6 (N, cleaved yes); made in house; host or cells: bacterial culture (2x TY, kanamycin, IPTG)
T1 sequence (Q9GZT9 181-410): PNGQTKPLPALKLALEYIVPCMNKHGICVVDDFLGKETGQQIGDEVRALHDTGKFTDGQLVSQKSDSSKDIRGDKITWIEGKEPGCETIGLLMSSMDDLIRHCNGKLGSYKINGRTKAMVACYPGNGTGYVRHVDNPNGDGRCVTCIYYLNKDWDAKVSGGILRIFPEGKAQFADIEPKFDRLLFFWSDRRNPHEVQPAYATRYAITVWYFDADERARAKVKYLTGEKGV
Protocol: The site of crosslinking of 3 was investigated using protein variants. First, 3 was incubated with C-terminal truncated PHD2 (PHD2_181–402) and a loop deletion variant (deletion of residues 238–250, PHD2Δ). […] Thus, 3 was incubated with PHD2 constructs truncated at residues 402, 410, 414 and 418. […] Crosslinking experiments with PHD2 R411M implied that R411 is not directly involved in crosslinking (Fig. S11, ESI ^†).
(§1) Fig. S8 Temperature dependence of the rate of crosslinking of 3 with PHD2. PHD2 (20 µM) was incubated with equimolar Fe(II) and 3 in buffer (50 mM Tris, 150 mM NaCl, pH 7.5) at 4, 20 and 37 °C. The ratio of crosslinking after 1, 2, and 4 h was determined by ESI-MS under denaturing conditions (n = 2), error bars represent 1 standard deviation.
Fig. S9 Ratio of crosslinked PHD2.3 before evaluation of catalytic activity. Labelled peaks correspond to: (A): PHD2, […]
Fig. S10 Non-denaturing ESI-MS analysis of (a) PHD2 and its C-terminal truncations (b) PHD2181-418; (c) PHD2181-414;
(d) PHD2181-410; (e) PHD2181-402 in the presence of equimolar amounts of FeSO4 and 3 after 3 hours incubation at 37 °C in ammonium acetate (15 mM, pH 7.5) at a sample cone voltage of 200V. Peaks present: (A): PHD2.Fe; (B): PHD2181-

PHD2 = biological target: T2, PHD2 (Homo sapiens, UniProt Q9GZT9); assay: Denaturing ESI-MS of crosslinking with PHD2; format: binding
T2 construct: PHD2_181–426 (hereafter PHD2); His6 (N, cleaved yes); made in house; host or cells: bacterial culture (2x TY, kanamycin, IPTG)
T2 sequence (Q9GZT9 181-426): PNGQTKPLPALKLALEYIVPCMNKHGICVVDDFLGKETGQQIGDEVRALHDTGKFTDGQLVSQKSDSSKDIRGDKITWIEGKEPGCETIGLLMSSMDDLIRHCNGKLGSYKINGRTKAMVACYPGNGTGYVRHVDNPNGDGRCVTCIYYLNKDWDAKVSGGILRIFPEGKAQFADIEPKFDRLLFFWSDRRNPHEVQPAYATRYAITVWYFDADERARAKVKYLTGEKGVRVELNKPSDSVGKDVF
Protocol: In contrast to the likely imine adducts formed with 1/2, the PHD2·Fe·3 covalent adduct was stable to the acidic conditions of denaturing MS. […] The crosslinking could be fitted by a one-site decay function (R^2 = 0.99, GraphPad Prism), consistent with a quasi intramolecular reaction of the PHD2·Fe·3 non-covalent species to give a covalent adduct (Fig. S5, ESI ^†).
Fig. S7 Time-course analysis of crosslinking between PHD2 and 3. PHD2 (20 µM) was incubated (37 °C, 4 h) with FeSO4 (20 µM) and 3 (30 µM). Samples were taken at regular intervals, quenched by acidification and the ratio of covalent crosslinking analysed by ESI-MS under denaturing conditions. Above: overlaid deconvoluted mass spectra; Below: variation of crosslinking with time. Data represent mean intensities of repeats (n=3), error bars show 1 standard […]
as §1
Fig. S9 Ratio of crosslinked PHD2.3 before evaluation of catalytic activity.
100 μM. FeSO4·7H2O was dissolved in 20 mM HCl at a concentration of 100 mM. This solution was then diluted with MilliQ purified water to give a final working concentration of 100 μM. The protein was mixed with the Fe(II) solution and the inhibitor solution to give final concentrations of 20 μM PHD2, 20 μM Fe(II), and 20 μM inhibitor. The resultant solution was incubated for the appropriate time (specified in the text) at 37 […]
(5 min or 20 min) at 37 °C. After incubation, the samples were immediately analysed by ESI-MS.
1.1.2 Denaturing mass spectrometry
Intact protein masses were obtaine by liquid chromatography-mass spectrometry (LC-MS) using a Waters LCT premier XE time-of-flight mass spectrometer interfaced with a Waters 1525u HPLC pump and Waters […]
The protein sample (10 µM, 5 µl) was injected onto a Chromolith FastGradient RP-18 2x50mm Monolithic reverse phase HPLC column and eluted at 0.4 ml.min-1 using a gradient system from Solvent A (water, 0.1 % (v/v) formic acid) to Solvent B (acetonitrile, 0.1 % (v/v) formic acid) according to the following conditions:
Time (Min) %A %B Flow Rate (ml.min-1)
The eluent was transferred directly to the mass spectrometer. The following MS parameters were used:
Capillary voltage – 3,000 V; Sample cone voltage – 50 V; Extraction cone voltage – 1V; Desolvation temperature – 250 °C; Source temperature – 100 °C; Cone gas flow – 100 l.hour-1; Desolvation gas flow (N2) – 830 l.hour-1. Data were processed with MassLynx™ v4.0 (Waters) and protein peaks were deconvoluted using the Maximum Entropy method (MaxEnt1).
1.1.3 Analysis of protein activity by peptide turnover assay using MALDI-MS detection2 PHD2 (20 µM), Fe(II) (20 µM) and the inhibitor (30 µM) in buffer (15 mM ammonium acetate, pH 7.5) were incubated for the appropriate time (specified in the text) at 37 °C. Subsequently, the enzyme (1.5 µL, final […]
ascorbate (1 mM), 2-oxoglutarate (100 µM) and the respective inhibitor (30 µM) in buffer (50 mM Tris, 150 mM NaCl). In the positive control no inhibitor was added. The resultant mixture was incubated at 37 °C and samples ([…]) were taken at regular intervals and quenched by addition of 1% (v/v) aqueous formic acid ([…]). Samples were analysed using a MALDI micro MX mass spectrometer (Waters) in the reflectron positive ion mode. Data were processed using MassLynx v4.0. The yield of crosslinking was determined by comparison of the signal intensities for crosslinked and unmodified protein.
1.1.4 Analysis of protein activity by peptide turnover assay using the AlphaScreen™ 3 The assay consisted of three parts: pre-incubation with inhibitor, the PHD2 hydroxylation reaction, and incubation with the AlphaScreen™ bead mix.

PHD2 (residues 181-426) = PHD2 (residues 181-426) (Homo sapiens, UniProt Q9GZT9); assay: biochemical
PHD2 (residues 181-426), sequence (Q9GZT9 181-426): as above

## C=CC(=O)Nc1cccc(C(=O)NCC(=O)O)c1O [compound 3]
[1]
  crosslinking with 410 truncate: Crosslinking did not occur
PHD2; 4 °C
  conversion to crosslinked adduct at 4 °C: little conversion
PHD2; PHD2 pre-incubated with compound 0 h
  extent of crosslinking, 0 h pre-incubation: 0%
PHD2; PHD2 pre-incubated with compound 1 h
  extent of crosslinking, 1 h pre-incubation: 50%
PHD2; PHD2 pre-incubated with compound 2 h
  extent of crosslinking, 2 h pre-incubation: 66%
PHD2; PHD2 pre-incubated with compound 4 h
  extent of crosslinking, 4 h pre-incubation: 90%
PHD2; timecourse, 37 °C, 3 h, PHD2 20 µM, FeSO4 20 µM, compound 30 µM
  conversion to crosslinked PHD2·Fe·3 after 3 h: near complete conversion
PHD2 (residues 181-426)
  pIC50: < 2.70
